Experimental data reported in PMC9867241, “Antioxidant and Cytotoxic Activity of New Polyphenolic Derivatives of Quinazolin-4(3H)-one: Synthesis and In Vitro Activities Evaluation” (Pharmaceutics, 2022).
≈ marks a conversion by molar mass, not a printed value.

How the values were obtained:
[1] = ABTS˙+ radical scavenging assay
Procedure: (§1) The stock solutions (1 mg/mL) of the tested compounds and the controls were obtained, by dissolving the substances in dimethyl sulfoxide (DMSO). Using Jasco V-530, an UV-VIS spectrophotometer (Jasco International Co., Ltd., Tokyo, Japan), we performed the colorimetric determinations in low-volume single-use 10 mm width cuvettes.
(§2) The assays were performed in triplicate and the results are presented as averages for each assay.

[2] = DPPH˙ radical scavenging assay
Procedure: as §1, §2
The DPPH˙ radical scavenging assay is based on the transfer of one hydrogen from the analyzed compound to the violet stable free radical DPPH˙ (2,2-diphenyl-1-picrylhydrazyl), as we convert it into a yellow compound. The absorbance of the reagent mixed with samples presented inversely proportional values to the amount of DPPH˙ neutralized. The absorbance of the reagent was measured at λ = 517 nm, according to our previous reports. The assay was made in the presence of various concentrations of samples. The used protocol is based on the report of Brand-Williams et al..

[3] = Phosphomolybdate assay for total antioxidant capacity (TAC); set-up: concentration or dose not given beside the values; conditions: for TAC, % of Activity of Trolox: relative to Trolox; for TAC, % of Activity of Ascorbic Acid: relative to ascorbic acid
Excerpt: Using the phosphomolybdate assay, we determined the total antioxidant capacity (TAC) of the tested compounds. We measured the solutions’ absorbances against a blank sample at λ = 695 nm, using a previously reported procedure by our group, based on initial literature reports. Using Equation (4), we calculated the TAC of 5a–d and 6a–d compounds.
At acidic pH, the tested compounds transfer one electron to Mo^6+ to reduce it to Mo^5+.

[4] = Cupric reducing antioxidant capacity (CUPRAC) assay; set-up: concentration or dose not given beside the values; conditions: for CUPRAC, % of Activity of Trolox: relative to Trolox; for CUPRAC, % of Activity of Ascorbic Acid: relative to ascorbic acid
Procedure: The ability to donate electrons was evaluated for the compounds 5a–d and 6a–d, by the CUPRAC (CUPric reducing antioxidant capacity) method. The absorbance was measured against a blank sample, at λ = 450 nm. The assay was performed based on our group’s previous report by the adaptation of the initial report of Alam et al., Özyürek et al. and Apak et al.. With the use of Equation (4), the cupric ion reduction by compounds 5a–d and 6a–d was expressed as a percentage of the reference compound activity.
The Cu^2+ ions are reduced to Cu^+ ions by the electron-donating compounds. The Cu^+ ions are chelated by neocuproine, giving a colored complex with absorbance proportional to the quantity of Cu^+ ions that resulted.

[5] = Fe^2+ chelation assay (ferrozine competition)
Procedure: In the protocol used for evaluating the Fe^2+ chelating ability of the compounds, the absorbances of the solutions were determined at λ = 562 nm, against a blank sample. The method was adapted from the initial report of Benzie and Strain et al., which was previously reported by our group. Using Equation (5), we calculated the iron chelation capacities of the 5a–d and 6a–d compounds:(5) iron chelation (%)=control absorbance−sample absorbance/control absorbance×100
The chelating capacity of the tested compounds of Fe^2+ was evaluated based on their competition for Fe^2+ with ferrozine.

[6] = Cu^2+ chelation assay (murexide competition)
Excerpt: With murexide as a chromophoric chelator, we performed the protocol followed for the evaluation of Cu^2+ chelating activities of the compounds using an adaptation of the method presented by Cesari et al. and Wu et al.. Using Equation (6), we calculated the copper chelation capacities of the 5a–d and 6a–d compounds:(6) copper chelation (%)=(A485/A520)control−(A485/A520)sample/(A485/A520)control×100
The evaluation of the Cu^2+ chelation activity of compounds was made based on the competition for Cu^2+ with murexide. The chelating activity of compounds for the cupric ions found in the current assay is significant for the pyrogallol derivatives, being quite close to EDTA-Na2.

SMILES: C=CCn1c(SCC(=O)NN=Cc2ccc(O)c(O)c2O)nc2ccccc2c1=O [Compound 5a, 2-((3-Allyl-4-oxo-3,4-dihydroquinazolin-2-yl)thio)-N’-(2,3,4-trihydroxybenzylidene)acetohydrazide]
- IC50 [1]: 3.87 µM
- IC50 (ABTS˙^+ scavenging) [1]: 1.65 µg/mL (≈ 3.87 µM)
- % of ABTS˙^+ Scavenging ([1]; 0.83 µg/mL): 38.14%
- % of ABTS˙^+ Scavenging ([1]; 1.67 µg/mL): 51.47%
- % of ABTS˙^+ Scavenging ([1]; 3.33 µg/mL): 72.00%
- % of ABTS˙^+ Scavenging ([1]; 4.99 µg/mL): + (+ represents more than 95%)
- % of ABTS˙^+ Scavenging ([1]; 6.66 µg/mL): + (+ represents more than 95%)
- % of ABTS˙^+ Scavenging ([1]; 9.99 µg/mL): + (+ represents more than 95%)
- % of ABTS˙^+ Scavenging ([1]; 13.32 µg/mL): + (+ represents more than 95%)
- IC50 [2]: 6.47 µM
- IC50 (DPPH˙ scavenging) [2]: 2.76 µg/mL (≈ 6.47 µM)
- % of DPPH˙ Scavenging ([2]; 1.25 µg/mL): 41.09%
- % of DPPH˙ Scavenging ([2]; 2.5 µg/mL): 49.94%
- % of DPPH˙ Scavenging ([2]; 3.75 µg/mL): 54.93%
- % of DPPH˙ Scavenging ([2]; 5 µg/mL): 62.06%
- % of DPPH˙ Scavenging ([2]; 7.5 µg/mL): 73.89%
- % of DPPH˙ Scavenging ([2]; 10 µg/mL): + (+ represents more than 95%)
- % of DPPH˙ Scavenging ([2]; 12.5 µg/mL): + (+ represents more than 95%)
- % of DPPH˙ Scavenging ([2]; 15 µg/mL): + (+ represents more than 95%)
- TAC, % of Activity of Trolox [3]: 176.42%
- TAC, % of Activity of Ascorbic Acid [3]: 91.43%
- CUPRAC, % of Activity of Trolox [4]: 126.56%
- CUPRAC, % of Activity of Ascorbic Acid [4]: 132.79%
- Ferrous ions Chelation Capacity (%) ([5]; 17.70 µg/mL): - (- represents less than 5%)
- Ferrous ions Chelation Capacity (%) ([5]; 20.59 µg/mL): - (- represents less than 5%)
- Ferrous ions Chelation Capacity (%) ([5]; 29.41 µg/mL): - (- represents less than 5%)
- Ferrous ions Chelation Capacity (%) ([5]; 44.11 µg/mL): - (- represents less than 5%)
- Ferrous ions Chelation Capacity (%) ([5]; 58.82 µg/mL): 18.44%
- Ferrous ions Chelation Capacity (%) ([5]; 88.23 µg/mL): 34.12%
- Ferrous ions Chelation Capacity (%) ([5]; 117.64 µg/mL): 45.93%
- Ferrous ions Chelation Capacity (%) ([5]; 257.46 µg/mL): 71.76%
- Ferrous ions Chelation Capacity (%) ([5]; 343.28 µg/mL): 86.30%
- Cupric ions Chelation Capacity (%) ([6]; 3.36 µg/mL): 20.33%
- Cupric ions Chelation Capacity (%) ([6]; 8.40 µg/mL): 30.76%
- Cupric ions Chelation Capacity (%) ([6]; 16.80 µg/mL): 40.29%
- melting point: 213 °C

SMILES: O=C(CSc1nc2ccccc2c(=O)n1Cc1ccccc1)NN=Cc1ccc(O)c(O)c1O [Compound 5b, 2-((3-Benzyl-4-oxo-3,4-dihydroquinazolin-2-yl)thio)-N’-(2,3,4-trihydroxybenzylidene)acetohydrazide]
- IC50 [1]: 4.01 µM
- IC50 (ABTS˙^+ scavenging) [1]: 1.91 µg/mL (≈ 4.01 µM)
- % of ABTS˙^+ Scavenging ([1]; 0.83 µg/mL): 34.65%
- % of ABTS˙^+ Scavenging ([1]; 1.67 µg/mL): 49.32%
- % of ABTS˙^+ Scavenging ([1]; 3.33 µg/mL): 68.62%
- % of ABTS˙^+ Scavenging ([1]; 4.99 µg/mL): 85.98%
- % of ABTS˙^+ Scavenging ([1]; 6.66 µg/mL): + (+ represents more than 95%)
- % of ABTS˙^+ Scavenging ([1]; 9.99 µg/mL): + (+ represents more than 95%)
- % of ABTS˙^+ Scavenging ([1]; 13.32 µg/mL): + (+ represents more than 95%)
- IC50 [2]: 7.6 µM
- IC50 (DPPH˙ scavenging) [2]: 3.62 µg/mL (≈ 7.6 µM)
- % of DPPH˙ Scavenging ([2]; 1.25 µg/mL): 37.55%
- % of DPPH˙ Scavenging ([2]; 2.5 µg/mL): 45.21%
- % of DPPH˙ Scavenging ([2]; 3.75 µg/mL): 51.00%
- % of DPPH˙ Scavenging ([2]; 5 µg/mL): 56.36%
- % of DPPH˙ Scavenging ([2]; 7.5 µg/mL): 69.66%
- % of DPPH˙ Scavenging ([2]; 10 µg/mL): 81.12%
- % of DPPH˙ Scavenging ([2]; 12.5 µg/mL): + (+ represents more than 95%)
- % of DPPH˙ Scavenging ([2]; 15 µg/mL): + (+ represents more than 95%)
- TAC, % of Activity of Trolox [3]: 156.96%
- TAC, % of Activity of Ascorbic Acid [3]: 81.34%
- CUPRAC, % of Activity of Trolox [4]: 92.75%
- CUPRAC, % of Activity of Ascorbic Acid [4]: 97.31%
- Ferrous ions Chelation Capacity (%) ([5]; 17.70 µg/mL): - (- represents less than 5%)
- Ferrous ions Chelation Capacity (%) ([5]; 20.59 µg/mL): - (- represents less than 5%)
- Ferrous ions Chelation Capacity (%) ([5]; 29.41 µg/mL): - (- represents less than 5%)
- Ferrous ions Chelation Capacity (%) ([5]; 44.11 µg/mL): - (- represents less than 5%)
- Ferrous ions Chelation Capacity (%) ([5]; 58.82 µg/mL): - (- represents less than 5%)
- Ferrous ions Chelation Capacity (%) ([5]; 88.23 µg/mL): - (- represents less than 5%)
- Ferrous ions Chelation Capacity (%) ([5]; 117.64 µg/mL): - (- represents less than 5%)
- Ferrous ions Chelation Capacity (%) ([5]; 257.46 µg/mL): 19.02%
- Ferrous ions Chelation Capacity (%) ([5]; 343.28 µg/mL): 35.16%
- Cupric ions Chelation Capacity (%) ([6]; 3.36 µg/mL): 11.17%
- Cupric ions Chelation Capacity (%) ([6]; 8.40 µg/mL): 25.27%
- Cupric ions Chelation Capacity (%) ([6]; 16.80 µg/mL): 40.20%
- melting point: 228 °C

SMILES: CCn1c(SCC(=O)NN=Cc2ccc(O)c(O)c2O)nc2ccccc2c1=O [Compound 5c, 2-((3-Ethyl-4-oxo-3,4-dihydroquinazolin-2-yl)thio)-N’-(2,3,4-trihydroxybenzylidene)acetohydrazide]
- IC50 [1]: 3.86 µM
- IC50 (ABTS˙^+ scavenging) [1]: 1.60 µg/mL (≈ 3.86 µM)
- % of ABTS˙^+ Scavenging ([1]; 0.83 µg/mL): 39.05%
- % of ABTS˙^+ Scavenging ([1]; 1.67 µg/mL): 52.25%
- % of ABTS˙^+ Scavenging ([1]; 3.33 µg/mL): 72.57%
- % of ABTS˙^+ Scavenging ([1]; 4.99 µg/mL): + (+ represents more than 95%)
- % of ABTS˙^+ Scavenging ([1]; 6.66 µg/mL): + (+ represents more than 95%)
- % of ABTS˙^+ Scavenging ([1]; 9.99 µg/mL): + (+ represents more than 95%)
- % of ABTS˙^+ Scavenging ([1]; 13.32 µg/mL): + (+ represents more than 95%)
- IC50 [2]: 4.46 µM
- IC50 (DPPH˙ scavenging) [2]: 1.85 µg/mL (≈ 4.46 µM)
- % of DPPH˙ Scavenging ([2]; 1.25 µg/mL): 44.32%
- % of DPPH˙ Scavenging ([2]; 2.5 µg/mL): 55.40%
- % of DPPH˙ Scavenging ([2]; 3.75 µg/mL): 64.87%
- % of DPPH˙ Scavenging ([2]; 5 µg/mL): 73.44%
- % of DPPH˙ Scavenging ([2]; 7.5 µg/mL): 90.15%
- % of DPPH˙ Scavenging ([2]; 10 µg/mL): + (+ represents more than 95%)
- % of DPPH˙ Scavenging ([2]; 12.5 µg/mL): + (+ represents more than 95%)
- % of DPPH˙ Scavenging ([2]; 15 µg/mL): + (+ represents more than 95%)
- TAC, % of Activity of Trolox [3]: 163.49%
- TAC, % of Activity of Ascorbic Acid [3]: 84.73%
- CUPRAC, % of Activity of Trolox [4]: 110.95%
- CUPRAC, % of Activity of Ascorbic Acid [4]: 116.41%
- Ferrous ions Chelation Capacity (%) ([5]; 17.70 µg/mL): - (- represents less than 5%)
- Ferrous ions Chelation Capacity (%) ([5]; 20.59 µg/mL): - (- represents less than 5%)
- Ferrous ions Chelation Capacity (%) ([5]; 29.41 µg/mL): - (- represents less than 5%)
- Ferrous ions Chelation Capacity (%) ([5]; 44.11 µg/mL): - (- represents less than 5%)
- Ferrous ions Chelation Capacity (%) ([5]; 58.82 µg/mL): - (- represents less than 5%)
- Ferrous ions Chelation Capacity (%) ([5]; 88.23 µg/mL): - (- represents less than 5%)
- Ferrous ions Chelation Capacity (%) ([5]; 117.64 µg/mL): 20.27%
- Ferrous ions Chelation Capacity (%) ([5]; 257.46 µg/mL): 65.75%
- Ferrous ions Chelation Capacity (%) ([5]; 343.28 µg/mL): 89.24%
- Cupric ions Chelation Capacity (%) ([6]; 3.36 µg/mL): 13.06%
- Cupric ions Chelation Capacity (%) ([6]; 8.40 µg/mL): 23.23%
- Cupric ions Chelation Capacity (%) ([6]; 16.80 µg/mL): 32.60%
- melting point: 208 °C
